Source: US8765779B2, “Tricyclic derivatives and their pharmaceutical use and compositions” (Cephalon, Inc., priority 2009, dated 2014)
Where a name gives a salt, the structure may show the parent alone.

Target: T1, human 5-HT6 receptor (Homo sapiens, UniProt P50406)
T1 construct: host or cells: CHO-K1 cells, stably transfected; membranes prepared in house
Assay: Human 5-HT6 Receptor Binding Assay ([3H]LSD displacement, scintillation beads)
Conditions: membranes of CHO-K1 cells with recombinant human 5-HT6, 4 nM [3H]LSD; Table 1, class symbols; read-out: h5-HT6 (Ki)

T1 sequence (P50406 whole entry): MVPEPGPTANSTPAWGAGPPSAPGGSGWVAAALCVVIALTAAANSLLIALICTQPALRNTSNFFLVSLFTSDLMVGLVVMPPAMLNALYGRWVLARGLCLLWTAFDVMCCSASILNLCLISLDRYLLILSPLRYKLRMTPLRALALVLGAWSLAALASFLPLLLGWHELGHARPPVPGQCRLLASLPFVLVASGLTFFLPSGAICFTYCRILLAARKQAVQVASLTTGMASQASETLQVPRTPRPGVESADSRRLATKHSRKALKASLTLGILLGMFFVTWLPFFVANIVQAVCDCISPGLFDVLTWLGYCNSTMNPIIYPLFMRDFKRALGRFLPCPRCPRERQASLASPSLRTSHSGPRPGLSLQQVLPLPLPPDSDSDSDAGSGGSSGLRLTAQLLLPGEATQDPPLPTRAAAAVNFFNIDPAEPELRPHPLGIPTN

Structure (SMILES)	Ki
COc1c(F)cc(F)cc1S(=O)(=O)c1ccc2c(c1)OC1CNCCC21 (stereo not shown) [Example 458]	> 1 µM
O=S(=O)(Oc1ccc2c(c1)C1CCNCC1O2)c1ccc(F)cc1 (stereo not shown) [Example 702]	> 1 µM
O=S(=O)(Cc1cccc(C(F)(F)F)c1)Oc1ccc2c(c1)C1CCNCC1O2 (stereo not shown) [Example 750]	> 1 µM
O=S(=O)(c1ccccc1)c1ccc2c(c1)C1CCNCC1O2 (stereo not shown) [Example 181, 6-(phenylsulfonyl)-1,2,3,4,4a,9a-hexahydro[1]benzofuro[2,3-c]pyridine]	> 1 µM
CC12CCNCC1Oc1ccc(OS(=O)(=O)Cc3ccc(F)cc3F)cc12 (stereo not shown) [Example 787]	> 1 µM
CC(C)Oc1cccc(S(=O)(=O)c2ccc3c(c2)OC2CNCCC32C)c1 (racemic) [Example 12, 4a-methyl-7-{[3-(propan-2-yloxy)phenyl]sulfonyl}-1,2,3,4,4a,9a-hexahydro[1]benzofuro[2,3-c]pyridine]	< 0.5 µM
COCC1NCCc2c1oc1ccc(S(=O)(=O)c3cccc(F)c3)cc21 (stereo not shown) [Example 515]	> 1 µM
CC12CCNCC1Oc1ccc(S(=O)(=O)c3cc[n+]([O-])cc3)cc12 (racemic) [Example 14, 4a-methyl-6-[(1-oxidopyridin-4-yl)sulfonyl]-1,2,3,4,4a,9a-hexahydro[1]benzofuro[2,3-c]pyridine]	> 1 µM
CC12CCNCC1Oc1ccc(OS(=O)(=O)Cc3ccccc3F)cc12 (stereo not shown) [Example 786]	< 0.5 µM
CCN1CCC2c3ccc(OS(=O)(=O)c4ccc(Cl)cc4)cc3OC2C1 (stereo not shown) [Example 812]	> 1 µM
O=S(=O)(c1cccc(F)c1)c1ccc2oc3c(c2c1)CCNC3CC(F)(F)F (stereo not shown) [Example 518]	> 1 µM
COc1ccc(S(=O)(=O)Oc2ccc3c(c2)C2CCNCC2O3)cc1 (stereo not shown) [Example 707]	0.5 to 1 µM
O=S(=O)(Nc1cccc(F)c1)c1ccc2c(c1)C1CCNCC1O2 (stereo not shown) [Example 846]	> 1 µM
CC(=O)N1CCC2c3cc(NS(=O)(=O)c4ccc5ccccc5c4)ccc3OC2C1 (stereo not shown) [Example 814, N-(2-Acetyl-1,2,3,4,4a,9a-hexahydro[1]benzofuro[2,3-c]pyridin-6-yl)naphthalene-2-sulfonamide]	> 1 µM
O=S(=O)(NC1Cc2ccccc2C1)c1ccc2c(c1)C1CCNCC1O2 (stereo not shown) [Example 857]	> 1 µM

Other lines, results leading:

Ki	Structure (SMILES)
< 0.5 µM	CC1(C)NCCc2c1oc1cc(S(=O)(=O)c3cc(F)cc(F)c3)ccc21 [Example 293]
< 0.5 µM	O=S(=O)(c1cccc(Cl)c1)c1ccc2oc3c(c2c1)CCNC3 [Example 243]
< 0.5 µM	O=S(=O)(c1cc(F)cc(F)c1)c1ccc2c3c(oc2c1)C1(CCOC1)NCC3 (stereo not shown) [Example 305]
< 0.5 µM	COc1cccc(S(=O)(=O)c2ccc3c(c2)OC2CNCCC32)c1 (stereo not shown) [Example 118]
< 0.5 µM	Cc1cc(S(=O)(=O)c2ccc3c4c(oc3c2)CNCC4)ccc1F [Example 218]
< 0.5 µM	O=S(=O)(c1cccc(Cl)c1)c1ccc2c3c(oc2c1)CN(CCc1ccccc1)CC3 [Example 602]
< 0.5 µM	CC(C)Oc1cccc([S+]([O-])c2ccc3c4c(oc3c2)CNCC4)c1 (stereo not shown) [Example 216]
< 0.5 µM	O=S(=O)(c1ccc(F)cc1)c1ccc2oc3c(c2c1)CCNC3 [Example 264]
< 0.5 µM	CC(=O)N1CCc2c(oc3cc(S(=O)(=O)c4ccccc4)ccc23)C1 [Example 614, 1-[7-(Phenylsulfonyl)-3,4-dihydro[1]benzofuro[2,3-c]pyridin-2(1H)-yl]ethanone trifluoroacetate]
< 0.5 µM	CCOc1cc(F)cc(S(=O)(=O)c2ccc3c(c2)OC2CNCCC32)c1 (stereo not shown) [Example 413]
< 0.5 µM	O=S(=O)(Oc1ccc2c(c1)OC1CNCCC21)c1ccccc1 (stereo not shown) [Example 636]
< 0.5 µM	O=S(=O)(c1cccc(OCC2CCCCO2)c1)c1ccc2c(c1)OC1CNCCC21 (stereo not shown) [Example 553]
< 0.5 µM	CC1(C)NCCc2c1oc1cc(S(=O)(=O)c3cccc(OC(F)(F)F)c3)ccc21 [Example 291, 1,1-dimethyl-7-{[3-(trifluoromethoxy)phenyl]sulfo-nyl}-1,2,3,4-tetrahydro[1]benzofuro[2,3-c]pyridine]
